Where two headings read alike, the source gives them in different places.
Assays:
[1] = test system: fruit of grape (variety: Red Globe)
Experimental: An agent for increasing a sugar content in a fruit (containing Sorbon T-20 as a spreader/sticker at a final concentration of 200 μL/L) diluted with water to have a potassium hydrogen carbonate concentration of 10 g/L was prepared. The mass of fruit of grape (variety: Red Globe) purchased on the market was measured. Then, the prepared agent for increasing a sugar content in a fruit was applied by spraying to the fruit of grape. Then, the fruit of grape was allowed to stand in an air-conditioned greenhouse (temperature: 25° C.), and the mass was measured over time (date of application: Apr. 27, 2011; dates of test: May 2, 2011, May 6, 2011, May 9, 2011, May 11, 2011, May 13, 2011, and May 16, 2011). In addition, as a control, the mass of untreated grape was measured on each date of measurement in the same manner.
On the basis of the measured mass, the estimated amount (cumulative value) of transpiration and the estimated amount of transpiration per day were calculated. The results are shown in Tables 5 and 6 and FIGS. 10 and 11.
Note that the vertical axis in FIG. 10 represents the mass (g) of the fruit of grape on each of the dates of measurement per 100 g of the fruit of grape on the date of application, and the vertical axis in FIG. 11 represents the estimated amount (g) of transpiration on each of the dates of measurement per 100 g of the fruit of grape on the date of application. The estimated amount (g) of transpiration on each of the dates of measurement per 100 g of the fruit of grape on the date of application=(the mass (g) of the fruit of grape on the date of application−the mass (g) of the fruit of grape on the date of measurement)/the mass of the fruit of grape on the date of application×100

Cherry (Sato Nishiki) = conditions: 10 g/L, three times at intervals of one week; harvested four weeks later
Experimental: (§1) To each of the plants shown in Table 15 below, an aqueous potassium hydrogen carbonate solution (10 g/L) was applied three times at intervals of one week about one month before the harvest time. Each of the plants was harvested four weeks later. The degree of the fruit cracking of the fruit was compared with that of untreated fruit, and a fruit cracking-suppression ratio was determined. […] The fruit cracking ratio (%)=the number of pieces of the fruit which underwent fruit cracking/the total number of pieces of the fruit×100 The fruit cracking-suppression ratio (%)=(1−the fruit cracking ratio (%) of a treated group/the fruit cracking ratio (%) of an untreated group)×100

Tomato (Regina) = conditions: 10 g/L, three times at intervals of one week
Experimental: as §1

[2] = test system: Grape (Nagano Purple), Grape (Riesling); conditions: 10 g/L, three times at intervals of one week
Experimental: as §1

[3] = test system: Wheat (grains: Norin No. 61); conditions: 10 g/L, three times at intervals of one week
Source text: (§2) To each of the plants shown in Table 16 below, an aqueous potassium hydrogen carbonate solution (5 g/L for lettuce and 10 g/L for the other plants) was applied three times at intervals of one week from one month before the harvest. The plants were harvested three weeks after the start of the application. Untreated plants not treated with the aqueous potassium hydrogen carbonate solution were harvested at the same time. After the harvest, the total amount of amino acids in each sample was determined, and the ratio of the total amount of amino acids in the plant treated with potassium hydrogen carbonate to the total amount of amino acids in the untreated plant was determined.

[4] = test system: Lettuce (leaves: Great Lakes); conditions: 5 g/L, three times at intervals of one week
Source text: as §2

[5] = test system: Grape (fruit: Cabernet Sauvignon); conditions: 10 g/L, three times at intervals of one week
Source text: as §2

[6] = test system: Rice plant (grains: Nipponbare); conditions: 10 g/L, three times at intervals of one week
Source text: as §2

Tomato (fruit: Regina) = conditions: 10 g/L, three times at intervals of one week
Source text: as §2

[7] = approximately 3 weeks later (19 days later)

## O=C([O-])O.[K+] [Potassium hydrogen carbonate, potassium hydrogen carbonate]
[1]; 5 days later
  Estimated amount (g) of transpiration per 100 g of fruit on date of application: 17.4 g
[1]; 5 days later (applied Apr. 27)
  Mass (g) of fruit per 100 g of fruit on date of application: 82.6 g
[1]; 9 days later
  Estimated amount (g) of transpiration per 100 g of fruit on date of application: 29.5 g
  Mass (g) of fruit per 100 g of fruit on date of application: 70.5 g
[1]; 12 days later
  Estimated amount (g) of transpiration per 100 g of fruit on date of application: 37.2 g
  Mass (g) of fruit per 100 g of fruit on date of application: 62.8 g
[1]; 14 days later
  Estimated amount (g) of transpiration per 100 g of fruit on date of application: 42.6 g
  Mass (g) of fruit per 100 g of fruit on date of application: 57.4 g
[1]; 16 days later
  Estimated amount (g) of transpiration per 100 g of fruit on date of application: 47.9 g
  Mass (g) of fruit per 100 g of fruit on date of application: 52.1 g
[1]; 19 days later
  Estimated amount (g) of transpiration per 100 g of fruit on date of application: 55.3 g
  Mass (g) of fruit per 100 g of fruit on date of application: 44.7 g
[1]; [7]
  mass as % of the mass on the date of application: 44.7%
  ratio of transpiration of the fruit: 55.3%
Cherry (Sato Nishiki)
  Fruit cracking-suppression ratio: 98%
Tomato (Regina)
  Fruit cracking-suppression ratio: 95%
[2]; Nagano Purple
  Fruit cracking-suppression ratio: 97%
[2]; Riesling
  Fruit cracking-suppression ratio: 98%
[3]
  Amino acid concentration ratio (treated/untreated): 1.2
[4]
  Amino acid concentration ratio (treated/untreated): 1.5
[5]
  Amino acid concentration ratio (treated/untreated): 2.2
[6]
  Amino acid concentration ratio (treated/untreated): 1.2
Tomato (fruit: Regina)
  Amino acid concentration ratio (treated/untreated): 1.8

Source: patent publication US10080366B2, “Agent for increasing sugar content in fruit” (RIKEN, priority 2012, dated 2018)
